Experimental data taken from patent publication US20240287138A1, “CYCLIC PEPTIDES FOR INHIBITING TNF RECEPTOR 1 ACTIVITY” (Merck Sharp & Dohme LLC, priority 2023, published 2024).
Numbered stars: 1 amine (or outer) side, 2 acyl side, 3 side chain; on linkers, the order of the positions; unused ones are H or OH. Bridge positions count the residues as written; N and C are the ends. Square brackets hold non-standard residues; d marks the D form. Peptide text beside a SMILES is read from it. Trp(βS-Me,7-OMe) = COc1cccc2c([C@H](C)[C@H](N)C(=O)O)c[nH]c12; X24 = O=C(O)c1ccc([C@@H](O)[C@H](N[*:1])C(=O)[*:2])cc1; Trp(7-CN) = N#Cc1cccc2c(C[C@H](N)C(=O)O)c[nH]c12; Trp(7-Cl) = N[C@@H](Cc1c[nH]c2c(Cl)cccc12)C(=O)O; Phe(4-CONH2) = NC(=O)c1ccc(C[C@H](N)C(=O)O)cc1; Phe(4-COOH) = N[C@@H](Cc1ccc(C(=O)O)cc1)C(=O)O; 4Pal(3S-Me) = C[C@@H](c1ccncc1)[C@H](N)C(=O)O; Trp(7-aza) = N[C@@H](Cc1c[nH]c2ncccc12)C(=O)O; Pip(5R-OH) = O=C(O)[C@@H]1CC[C@@H](O)CN1; X1 = O=C([C@@H]1CC[C@H](N[*:1])C1)[*:2]; Pip(4-aza) = O=C(O)[C@@H]1CNCCN1; 4Pal = N[C@@H](Cc1ccncc1)C(=O)O; NMeE = CN[C@@H](CCC(=O)O)C(=O)O; dHyp = O=C(O)[C@H]1C[C@H](O)CN1; aThr = C[C@H](O)[C@H](N)C(=O)O; Ahp(2) = CCCCC[C@H](N)C(=O)O; αMeS = C[C@](N)(CO)C(=O)O; Nle = CCCC[C@H](N)C(=O)O; Sar = CNCC(=O)O

What was measured:
[1] = target: T1, human soluble TNFR1 (sTNFR1) (Homo sapiens, UniProt P19438); assay: Human sTNFR1-peptide displacement assay (LanthaScreen Eu TR-FRET binding assay)
T1 construct: made in house; host or cells: Sf21 (baculovirus)
T1 sequence (P19438 with tags, fused parts or gaps): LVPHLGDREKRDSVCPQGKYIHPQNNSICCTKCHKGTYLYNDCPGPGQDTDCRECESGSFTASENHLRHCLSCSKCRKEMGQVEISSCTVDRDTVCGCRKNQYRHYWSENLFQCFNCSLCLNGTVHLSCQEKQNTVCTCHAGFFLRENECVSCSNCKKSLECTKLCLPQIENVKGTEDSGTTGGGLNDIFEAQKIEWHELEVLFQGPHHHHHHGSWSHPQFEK
Outline: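 Readout is the 665/615 nm TR-FRET ratio (Eu anti-His donor, streptavidin-Alexa647 acceptor), normalized to DMSO and saturating displacer, fit by Morrison-based five-parameter logistic for Kd^app. His-tagged sTNFR1 (1-211) prebound to 100 nM biotinylated peptide SEQ ID NO.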

[2] = target: T2, human TNFR1 extracellular domain (ECD) protein (Homo sapiens, UniProt P19438); assay: SPR binding affinity to captured human TNFR1 ECD
T2 construct: HRV 3C protease cleavage site (C); 6His (C, cleaved yes); made in house; host or cells: Sf21 insect cells (baculovirus), secreted
T2 sequence (P19438 30-211): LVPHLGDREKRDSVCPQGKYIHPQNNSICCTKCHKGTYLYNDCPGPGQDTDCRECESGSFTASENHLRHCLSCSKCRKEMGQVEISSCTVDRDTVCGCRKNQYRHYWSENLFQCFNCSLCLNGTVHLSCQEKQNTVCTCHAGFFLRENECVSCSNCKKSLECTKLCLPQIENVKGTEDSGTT
Outline: (§1)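 SPR kinetics: peptides over captured avi-biotinylated receptor ECDs, TNFR1 for affinity, TNFR2 run in parallel for off-target binding. Running buffer HEPES pH 7.4 with 150 mM NaCl, 3 mM EDTA, 0.05% P20, 2% DMSO; surface regenerated between analytes. Affinity derived from kon/koff.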

[3] = target: T3, human TNFR2 ECD protein (Homo sapiens, UniProt P20333); assay: SPR off-target binding (selectivity) to human TNFR2 ECD
T3 construct: HRV 3C protease cleavage site (C); 6His (C, cleaved yes); made in house; host or cells: Sf21 insect cells (baculovirus), secreted
T3 sequence (P20333 23-257): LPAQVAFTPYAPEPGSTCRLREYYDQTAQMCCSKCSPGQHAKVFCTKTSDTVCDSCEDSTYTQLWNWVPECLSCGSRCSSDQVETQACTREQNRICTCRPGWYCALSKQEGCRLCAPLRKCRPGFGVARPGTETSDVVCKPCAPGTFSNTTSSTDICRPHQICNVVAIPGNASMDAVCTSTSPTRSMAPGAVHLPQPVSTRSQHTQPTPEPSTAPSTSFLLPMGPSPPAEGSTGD
Outline: as §1

SMILES	IC50 [1]	Kd [1]	Kd [2]	Kd [3]
CCCC[C@@H]1NC(=O)CSC[C@@H](C(N)=O)NC(=O)[C@H]([C@@H](C)c2c[nH]c3c(OC)cccc23)NC(=O)CN(C)C(=O)[C@H](Cc2ccc(O)cc2)NC(=O)[C@H](Cc2ccc(C(=O)O)cc2)NC(=O)[C@](C)(CO)NC(=O)[C@H](Cc2c[nH]c3c(Cl)cccc23)NC(=O)[C@H](Cc2ccncc2)NC(=O)[C@H](CC(N)=O)NC(=O)[C@H](CCC(=O)O)N(C)C(=O)[C@H](Cc2c[nH]c3ncccc23)NC(=O)[C@H](CO)NC(=O)[C@H]([C@@H](C)c2ccncc2)NC1=O [SEQ ID NO. 180] ({CH2CO}-[Nle][4Pal(3S-Me)]S[Trp(7-aza)][NMeE]N[4Pal][Trp(7-Cl)][αMeS][Phe(4-COOH)]Y[Sar][Trp(βS-Me,7-OMe)]C-NH2; thioether N-14)	0.3 nM	0.18 nM	0.05 nM	> 1000 nM
CCCC[C@@H]1NC(=O)[C@@H]2CC[C@@H](C2)NC(=O)[C@H]([C@@H](C)c2c[nH]c3c(OC)cccc23)NC(=O)CN(C)C(=O)[C@H](Cc2ccc(C(=O)O)cc2)NC(=O)[C@H](Cc2ccc(C(N)=O)cc2)NC(=O)[C@](C)(CO)NC(=O)[C@H](Cc2c[nH]c3c(Cl)cccc23)NC(=O)[C@H](Cc2ccncc2)NC(=O)[C@H]([C@H](C)O)NC(=O)[C@H]2C[C@H](O)CN2C(=O)[C@H](Cc2c[nH]c3ccccc23)NC(=O)[C@@H]2CC[C@@H](O)CN2C(=O)[C@H](Cc2ccncc2)NC1=O [SEQ ID NO. 187] (cyclo([4Pal][Trp(7-Cl)][αMeS][Phe(4-CONH2)][Phe(4-COOH)][Sar][Trp(βS-Me,7-OMe)][X1][Nle][4Pal][Pip(5R-OH)]W[dHyp][aThr]))	–	0.09 nM	0.04 nM	> 1000 nM
CCCC[C@@H]1NC(=O)[C@@H]2CC[C@@H](C2)NC(=O)[C@H]([C@@H](C)c2c[nH]c3c(OC)cccc23)NC(=O)CN(C)C(=O)[C@H]([C@H](O)c2ccc(C(=O)O)cc2)NC(=O)[C@H](Cc2ccc(C(N)=O)cc2)NC(=O)[C@](C)(CO)NC(=O)[C@H](Cc2c[nH]c3c(Cl)cccc23)NC(=O)[C@H](Cc2ccncc2)NC(=O)[C@H](CC(N)=O)NC(=O)[C@H]2C[C@H](O)CN2C(=O)[C@H](Cc2c[nH]c3ccccc23)NC(=O)[C@@H]2CC[C@@H](O)CN2C(=O)[C@H](Cc2ccncc2)NC1=O [SEQ ID NO. 188] (cyclo([4Pal][Trp(7-Cl)][αMeS][Phe(4-CONH2)][X24][Sar][Trp(βS-Me,7-OMe)][X1][Nle][4Pal][Pip(5R-OH)]W[dHyp]N))	–	0.1 nM	0.03 nM	> 1000 nM
CCCC[C@@H]1NC(=O)[C@@H]2CC[C@@H](C2)NC(=O)[C@H]([C@@H](C)c2c[nH]c3c(OC)cccc23)NC(=O)CN(C)C(=O)[C@H](Cc2ccc(C(N)=O)cc2)NC(=O)[C@H](Cc2ccc(C(N)=O)cc2)NC(=O)[C@](C)(CO)NC(=O)[C@H](Cc2c[nH]c3c(Cl)cccc23)NC(=O)[C@H](Cc2ccncc2)NC(=O)[C@H](CC(N)=O)NC(=O)[C@H](CCC(=O)O)N(C)C(=O)[C@H](Cc2c[nH]c3ncccc23)NC(=O)[C@@H]2CC[C@@H](O)CN2C(=O)[C@H](Cc2ccncc2)NC1=O [SEQ ID NO. 189] (cyclo([4Pal][Trp(7-Cl)][αMeS][Phe(4-CONH2)][Phe(4-CONH2)][Sar][Trp(βS-Me,7-OMe)][X1][Nle][4Pal][Pip(5R-OH)][Trp(7-aza)][NMeE]N))	–	0.01 nM	0.1 nM	> 1000 nM
CCCCC[C@@H]1NC(=O)[C@@H]2CC[C@@H](C2)NC(=O)[C@H]([C@@H](C)c2c[nH]c3c(OC)cccc23)NC(=O)CN(C)C(=O)[C@H](Cc2ccc(OC)cc2)NC(=O)[C@H](Cc2ccc(C(N)=O)cc2)NC(=O)[C@](C)(CO)NC(=O)[C@H](Cc2c[nH]c3c(C#N)cccc23)NC(=O)[C@H](Cc2ccncc2)NC(=O)[C@H](CC(N)=O)NC(=O)[C@H]2C[C@H](O)CN2C(=O)[C@H](Cc2c[nH]c3ccccc23)NC(=O)[C@@H]2CNCCN2C(=O)[C@H](Cc2ccncc2)NC1=O [SEQ ID NO. 200] (cyclo([4Pal][Trp(7-CN)][αMeS][Phe(4-CONH2)]Y(Me)[Sar][Trp(βS-Me,7-OMe)][X1][Ahp(2)][4Pal][Pip(4-aza)]W[dHyp]N))	–	0.09 nM	0.02 nM	> 1000 nM
